Results published in patent publication EP0062319A1, “3-Methyl-1-(2-(3-naphthyloxy)-ethyl)-2-pyrazolin-5-one for the treatment of the metastasis and growth of tumour cells” (BAYER AG, priority 1981, dated 1982).

Legend:
[1] = test system: B-16a-amelanotischem Melanom; assay: Spontaneous (full) metastasis of subcutaneously injected B-16a melanoma (lung tumour colonies) in mice; assay type: in vivo, C57BL/6J Mäuse; settings: for Lungen-Tumor-Kolonien B-16a-Zellen: 1,8 x 10^5 cells s.c., killed day 25, mean ± SEM; for Lungen-Tumor-Kolonien B-16a-Zellen (fraction in brackets): bracketed fraction
Text: (§1) Wie bereits weiter oben festgestellt wurde, ist die Metastase […], die durch eine Reihe komplizierter Vorgänge dargestellt wird. Gegenwärtig finden zwei "Modell"-Systeme für die Untersuchung der in vivo-Metastase verbreitete Anwendung. Das erste Modellsystem umfaßt die subkutane Injektion der Tumorzellen in das Tier. Die subkutane Injektion der Tumorzellen und anschließende Entwicklung eines Primärtumors, gefolgt von spontaner Metastase, wird als "volle" Metastase betrachtet. Ein anderes Modellsystem umfaßt die Injektion der Tumorzellen durch die Schwanzvene. In Anbetracht der Komplexität der Metastase gilt die Schwanzvenen-Injektion als künstliches und nur partielles Modellsystem, da es nur die Vorgänge während des letzteren Teils der Metastase wiedergibt. Das Schwanzvenen-Modellsystem gilt jedoch auch als außerordentlich günstig im Hinblick auf eine Standardisierung der Versuchsbedingungen [vgl."Methods in Cancer Research", Kapitel VII, Academic Press, Inc., 1978].
(§2) Als Kontrolltiere wurden (unbehandelte) C57B1/6J-Mäuse nach folgender Arbeitsweise auf volle Metastase untersucht. Zellsuspensionen der B-16 - und 3LL-Karzinom-Zellen, die wie oben unter A und B beschrieben erhalten worden waren, wurden subkutan in die rechte Achselhöhlenregion der männlichen C57BL/6J-Mäuse injiziert (0,66 mm- = 26 gauge -Nadel; 0,2 ml). Injiziert wurden verschiedene Mengen der Zellsuspensionen im Bereich von 1 x 10^5 bis 1 x 10^6 Zellen. Versuche zur partiellen Metastase wurden in der Weise durchgeführt, daß Tumorzellen über die Schwanzvene in die (unbehandelten) Kontroll-Mäuse injiziert wurden. Die Tiere wurden unter identischen Bedingungen der Temperatur, Lichteinwirkungsdauer, Ernährung etc. gehalten. Nach einem Beobachtungszeitraum von 17 bis 30 Tagen wurden die für die volle Metastase und für die partielle Metastase verwendeten Tiere getötet, und die Lungen, Leber, Nieren, Milz und Gehirn-Gewebe wurde entnommen.
(§3) Das entnommene Gewebe wurde in Bouin-Lösung fixiert.
(§4) Die Zahl der metastatischen Knötchen in jedem Organ wurde mit Hilfe eines Bausch-und-Lomb Stereo-Zoom-Mikroskops bestimmt. Die Untersuchung der Kontroll- Mäuse auf metastatische Knötchen ergab bei 100 % der Tiere positive Befunde in bezug auf metastatische Lungentumoren; die Inkubationszeit für die Erzeugung solcher Metastasen betrug für die 3LL-Tumorzellen 17 bis 21 Tage und für die B-16 a -Tumorzellen 23 bis 30 Tage. In Leber, Nieren, Milz oder Gehirn-Gewebe wurden keine sichtbaren Knötchen beobachtet.
Die Wirkung der Verabreichung der Pyrazolon-Verbindung über einen längeren Zeitraum hinweg auf die Zahl der metastatischen Lungen-Kolonien des B-16 a und des Lewis-Lungen-Karzinoms wurde wie nachstehend beschrieben bestimmt.
3 mg 3-Methyl-1-[2-(2-naphthyloxy)-ethyl]-2-pyrazolin-5-on wurden in 0,6 ml Ethylalkohol gelöst, und die Lösung wurde mit konzentrierter Natronlauge auf pH 9,5 eingestellt.
Syngeneischen C57BL/6J Wirts-Mäusen wurde eine Suspension von 1,8 x 10^5 B-16 a -Zellen subkutan injiziert, die wie vorstehend beschrieben hergestellt wurde. Einer anderen Reihe syngeneischer C57BL/6J Wirts-Mäuse wurde eine Suspension von 1 x 10^5 Lewis-Lungen-Karzinom-Zellen, erhalten wie vorstehend beschrieben, subkutan injiziert. […] Die Kontroll-Mäuse und die behandelten Mäuse wurden unter identischen Bedingungen der Temperatur, Lichteinwirkungsdauer, Ernährung etc. gehalten. Die Mäuse, die die B-16 -Tumorzellen injiziert erhalten hatten wurden 25 Tage nach der Injektion der Tumorzellen getötet; die Mäuse, denen die Lewis-Lungen-Karzinom-Zellen injiziert worden waren, wurden 21 Tage nach der Injektion der Tumorzellen getötet.

B-16 -Melanom-Zellen = assay: Tumour cell proliferation and viability in tissue culture; assay type: cell-based, Mäuse; settings: 0,1 to 25 µg/ml; cell counts after 8 days; Fig. 2
Text: Die antineoplastische Wirksamkeit wurde außerdem durch direkte Messung des Wachstums der Tumorzellen in vitro in Gewebekulturen bestimmt. Diese Methode bedient sich des "Plating" oder Aufimpfens einer bekannten Anzahl von Tumorzellen auf ein Wachstumsmedium und der Bestimmung der Wirkung der Anwesenheit der zu prüfenden Verbindung auf die Tumorzellen-Proliferation. […] wurde die antineoplastische Aktivität in vivo in der Weise bestimmt, daß den Mäusen subkutan Tumorzellen injiziert wurden und das Auftreten von […] sowie […] in unbehandelten Kontrolltieren und in mit der Pyrazolon-Verbindung behandelten […] worden […] von 3 x 10^4 Zellen pro Platte überimpft. Die Zellen wurden in einem Medium aus MEM, Hank's Basic Salt Solution und 10 % […] bei Microbiological Associates, Walkersville, Maryland, kultiviert. Nach 24-stündiger Inkubation bei 37°C wurden die ZellZählungen durch […] Medium wurde […] und durch das oben bezeichnete.Medium und Pyrazolon in einem von 0,1 bis 25 μg/ml […]. Die Kontrollgruppen erhielten nur einen Austausch des Mediums. Danach wurde das Pyrazolon enthaltende Medium jeden zweiten Tag ersetzt. Nach 8 Tagen wurden Zellzählungen wie oben beschrieben durchgeführt, und die Lebensfähigkeit der Zellen wurde nach der weiter oben genannten Vitalfarbstoff-Ausschlußmethode (vital dye exclusive method) bestimmt. Die Daten sind dargestellt als Mittelwert der Zahl […] aus […]. […]

[2] = test system: B-16a-amelanotischen Melanom-Zellen; assay: Metastasis of tail-vein injected B-16a melanoma cells (lung tumour colonies) in mice; assay type: in vivo, C57BL/6J Mäuse; settings: 5 x 10^4 cells i.v., mean ± SEM, n = 6
Text: as §1, §2, §3, §4
3 mg 3-Methyl-1-[2-(2-naphthyloxy)-ethyl]-2-pyrazolin-5-on wurden in 0,6 ml absolutem Ethylalkohol suspendiert. Das suspendierte Pyrazolon wurde durch Einstellen des pH auf 9,5 mit NaOH gelöst. […]

CC1=NN(CCOc2ccc3ccccc3c2)C(=O)C1 [3-Methyl-1-[2-(2-naphthyloxy)-ethyl]-2-pyrazolin-5-on]
Lungen-Tumor-Kolonien B-16a-Zellen ([1]; 0.01 mg daily s.c., colonies on bilateral lung surface): 1.7 ± 0.7 | Lungen-Tumor-Kolonien B-16a-Zellen (fraction in brackets) ([1]; 0.01 mg daily s.c.): 7/12 | Lungen-Tumor-Kolonien B-16a-Zellen ([1]; 0.02 mg daily s.c.): 2.5 ± 0.9 | Lungen-Tumor-Kolonien B-16a-Zellen (fraction in brackets) ([1]; 0.02 mg daily s.c.): 7/12 | Lungen-Tumor-Kolonien B-16a-Zellen ([1]; 0.04 mg daily s.c.): 3.1 ± 0.8 | Lungen-Tumor-Kolonien B-16a-Zellen (fraction in brackets) ([1]; 0.04 mg daily s.c.): 8/12 | Lungen-Tumor-Kolonien B-16a-Zellen ([1]; 0.08 mg daily s.c.): 1.4 ± 0.8 | Lungen-Tumor-Kolonien B-16a-Zellen (fraction in brackets) ([1]; 0.08 mg daily s.c.): 5/12 | Tumorzellen-Proliferation (B-16 -Melanom-Zellen): die Tumorzellen-Proliferation über den gleichen Dosierungsbereich hemmte | Lungen-Tumor-Kolonien ([2]; 0.02 mg/mouse s.c. daily for 3 days before tumour cell injection, lungs 14 days later): 19.3 ± 7.5 | Lungen-Tumor-Kolonien ([2]; 0.08 mg, second line of the table (presumably injected 1 h before the tumour cells)): 65 ± 36 | Lungen-Tumor-Kolonien ([2]; 0.08 mg/mouse s.c. daily for 3 days before tumour cell injection, lungs 14 days later): 2.7 ± 1.3
